In PubChem BioAssay (NCI):
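1) Cells in 96-well plates. 2) Compound, 48 h, 5 concentrations. 3) Linear interpolation between surrounding doses. 4) Unreached endpoint = highest concentration. GI50 = concentration required for 50% inhibition of growth. TGI denotes the concentration required for complete inhibition of growth.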

Columns and labels:
Test in all cases: NCI-60 cell line screen, 48 h
A549 NSCLC = test system: A549 NSCLC
CCRF-CEM leukemia = test system: CCRF-CEM leukemia
RPMI-8226 leukemia = test system: RPMI-8226 leukemia
COLO 205 colon = test system: COLO 205 colon
IGROV1 ovarian = test system: IGROV1 ovarian
NCI-H23 lung = test system: NCI-H23 lung
LOX IMVI melanoma = test system: LOX IMVI melanoma
ACHN renal = test system: ACHN renal
SF-539 CNS = test system: SF-539 CNS
TK-10 renal = test system: TK-10 renal
EKVX NSCLC = test system: EKVX NSCLC
HCC-2998 colon = test system: HCC-2998 colon
SN12C renal = test system: SN12C renal
KM12 colon = test system: KM12 colon
PC-3 prostate = test system: PC-3 prostate
CAKI-1 renal = test system: CAKI-1 renal
HL-60(TB) leukemia = test system: HL-60(TB) leukemia
MDA-MB-435 = test system: MDA-MB-435
HS 578T breast = test system: HS 578T breast
SK-MEL-5 melanoma = test system: SK-MEL-5 melanoma
OVCAR-8 ovarian = test system: OVCAR-8 ovarian
OVCAR-5 ovarian = test system: OVCAR-5 ovarian
MALME-3M melanoma = test system: MALME-3M melanoma
SK-MEL-28 melanoma = test system: SK-MEL-28 melanoma
HOP-62 NSCLC = test system: HOP-62 NSCLC
SW-620 colon = test system: SW-620 colon
NCI/ADR-RES ovarian = test system: NCI/ADR-RES ovarian
NCI-H460 lung = test system: NCI-H460 lung
SR leukemia = test system: SR leukemia
MDA-MB-231 breast = test system: MDA-MB-231 breast
HCT-15 colon = test system: HCT-15 colon
BT-549 breast = test system: BT-549 breast
786-0 renal = test system: 786-0 renal
T-47D breast = test system: T-47D breast
SNB-75 CNS = test system: SNB-75 CNS
U251 CNS = test system: U251 CNS
UO-31 renal = test system: UO-31 renal
M14 melanoma = test system: M14 melanoma
HT29 colon = test system: HT29 colon
UACC-257 melanoma = test system: UACC-257 melanoma
SF-295 CNS = test system: SF-295 CNS
DU-145 prostate = test system: DU-145 prostate
SF-268 CNS = test system: SF-268 CNS
K-562 leukemia = test system: K-562 leukemia
SNB-19 CNS = test system: SNB-19 CNS
OVCAR-3 ovarian = test system: OVCAR-3 ovarian
A498 renal = test system: A498 renal
SK-OV-3 ovarian = test system: SK-OV-3 ovarian
OVCAR-4 ovarian = test system: OVCAR-4 ovarian
MCF7 breast = test system: MCF7 breast
NCI-H522 lung = test system: NCI-H522 lung
UACC-62 melanoma = test system: UACC-62 melanoma
HCT-116 colon = test system: HCT-116 colon
MOLT-4 leukemia = test system: MOLT-4 leukemia
HOP-92 NSCLC = test system: HOP-92 NSCLC
NCI-H226 lung = test system: NCI-H226 lung
SK-MEL-2 melanoma = test system: SK-MEL-2 melanoma

SMILES: O=C(CCCCCCNC(=O)C(O)(O)C(F)(F)F)Nc1ccc(Cl)cc1
- GI50 (A549 NSCLC): 9.56 µM
- TGI (A549 NSCLC): > 36.8 µM
- GI50 (CCRF-CEM leukemia): 2.73 µM
- TGI (CCRF-CEM leukemia): > 36.8 µM
- GI50 (RPMI-8226 leukemia): 3.46 µM
- TGI (RPMI-8226 leukemia): > 36.8 µM
- GI50 (COLO 205 colon): 5.83 µM
- TGI (COLO 205 colon): 15.1 µM
- GI50 (IGROV1 ovarian): 5.11 µM
- TGI (IGROV1 ovarian): 19.8 µM
- GI50 (NCI-H23 lung): 7.08 µM
- TGI (NCI-H23 lung): 34.2 µM
- GI50 (LOX IMVI melanoma): 4.07 µM
- TGI (LOX IMVI melanoma): 8.94 µM
- GI50 (ACHN renal): 6.01 µM
- TGI (ACHN renal): 28.2 µM
- GI50 (SF-539 CNS): 8.85 µM
- TGI (SF-539 CNS): > 36.8 µM
- GI50 (TK-10 renal): 1.55 µM
- TGI (TK-10 renal): > 36.8 µM
- GI50 (EKVX NSCLC): 11.2 µM
- TGI (EKVX NSCLC): > 36.8 µM
- GI50 (HCC-2998 colon): 7.62 µM
- TGI (HCC-2998 colon): 22 µM
- GI50 (SN12C renal): 7.66 µM
- TGI (SN12C renal): 35.6 µM
- GI50 (KM12 colon): 7.92 µM
- TGI (KM12 colon): > 36.8 µM
- GI50 (PC-3 prostate): 5.01 µM
- TGI (PC-3 prostate): > 36.8 µM
- GI50 (CAKI-1 renal): 8.98 µM
- TGI (CAKI-1 renal): > 36.8 µM
- GI50 (HL-60(TB) leukemia): 3.64 µM
- TGI (HL-60(TB) leukemia): > 36.8 µM
- GI50 (MDA-MB-435): 7.13 µM
- TGI (MDA-MB-435): > 36.8 µM
- GI50 (HS 578T breast): 3.68 µM
- TGI (HS 578T breast): 30.1 µM
- GI50 (SK-MEL-5 melanoma): 5.07 µM
- TGI (SK-MEL-5 melanoma): 10 µM
- GI50 (OVCAR-8 ovarian): 3.5 µM
- TGI (OVCAR-8 ovarian): > 36.8 µM
- GI50 (OVCAR-5 ovarian): 4.26 µM
- TGI (OVCAR-5 ovarian): 20.9 µM
- GI50 (MALME-3M melanoma): 2.83 µM
- TGI (MALME-3M melanoma): 22 µM
- GI50 (SK-MEL-28 melanoma): 5.4 µM
- TGI (SK-MEL-28 melanoma): 34.3 µM
- GI50 (HOP-62 NSCLC): 7.75 µM
- TGI (HOP-62 NSCLC): > 36.8 µM
- GI50 (SW-620 colon): 4.02 µM
- TGI (SW-620 colon): 16.3 µM
- GI50 (NCI/ADR-RES ovarian): 6.16 µM
- TGI (NCI/ADR-RES ovarian): 28.7 µM
- GI50 (NCI-H460 lung): 4.59 µM
- TGI (NCI-H460 lung): > 36.8 µM
- GI50 (SR leukemia): 2.44 µM
- TGI (SR leukemia): > 36.8 µM
- GI50 (MDA-MB-231 breast): 5.2 µM
- TGI (MDA-MB-231 breast): 27.3 µM
- GI50 (HCT-15 colon): 8.18 µM
- TGI (HCT-15 colon): > 36.8 µM
- GI50 (BT-549 breast): 6.72 µM
- TGI (BT-549 breast): 35 µM
- GI50 (786-0 renal): 9.48 µM
- TGI (786-0 renal): > 36.8 µM
- GI50 (T-47D breast): 5.76 µM
- TGI (T-47D breast): > 36.8 µM
- GI50 (SNB-75 CNS): 8.76 µM
- TGI (SNB-75 CNS): > 36.8 µM
- GI50 (U251 CNS): 4.91 µM
- TGI (U251 CNS): 21 µM
- GI50 (UO-31 renal): 5.25 µM
- TGI (UO-31 renal): 23.7 µM
- GI50 (M14 melanoma): 9.99 µM
- TGI (M14 melanoma): > 36.8 µM
- GI50 (HT29 colon): 6.28 µM
- TGI (HT29 colon): > 36.8 µM
- GI50 (UACC-257 melanoma): 7.85 µM
- TGI (UACC-257 melanoma): > 36.8 µM
- GI50 (SF-295 CNS): 5.77 µM
- TGI (SF-295 CNS): 13.1 µM
- GI50 (DU-145 prostate): 8.13 µM
- TGI (DU-145 prostate): > 36.8 µM
- GI50 (SF-268 CNS): 7.27 µM
- TGI (SF-268 CNS): 24.5 µM
- GI50 (K-562 leukemia): 1.82 µM
- TGI (K-562 leukemia): > 36.8 µM
- GI50 (SNB-19 CNS): 7.56 µM
- TGI (SNB-19 CNS): 30.9 µM
- GI50 (OVCAR-3 ovarian): 3.83 µM
- TGI (OVCAR-3 ovarian): 10.1 µM
- GI50 (A498 renal): 1.38 µM
- TGI (A498 renal): 12.5 µM
- GI50 (SK-OV-3 ovarian): 5.56 µM
- TGI (SK-OV-3 ovarian): 26 µM
- GI50 (OVCAR-4 ovarian): 15.7 µM
- TGI (OVCAR-4 ovarian): > 36.8 µM
- GI50 (MCF7 breast): 10.8 µM
- TGI (MCF7 breast): > 36.8 µM
- GI50 (NCI-H522 lung): 4.68 µM
- TGI (NCI-H522 lung): 19.8 µM
- GI50 (UACC-62 melanoma): 3.19 µM
- TGI (UACC-62 melanoma): 9.28 µM
- GI50 (HCT-116 colon): 1.59 µM
- TGI (HCT-116 colon): > 36.8 µM
- GI50 (MOLT-4 leukemia): 2.87 µM
- TGI (MOLT-4 leukemia): > 36.8 µM
- GI50 (HOP-92 NSCLC): 1.06 µM
- TGI (HOP-92 NSCLC): 8.39 µM
- GI50 (NCI-H226 lung): 9.49 µM
- TGI (NCI-H226 lung): > 36.8 µM
- GI50 (SK-MEL-2 melanoma): 5.41 µM
- TGI (SK-MEL-2 melanoma): 17.6 µM
